Assay results published in a melting point compilation (Tetko et al.; mined from patent text by program, amines drawn as free bases though some values may be those of a salt).

SMILES | melting point [°C]
Cc1nc2n(c(=O)c1CCN1CCC(C(=O)c3ccc(F)cc3)CC1)CCCN2Cc1ccccc1 | 126
COC(=O)Nc1cccc(C)c1CNc1cccn2c(CO)c(C)nc12 | 170 to 172
Nc1cc(-c2nnc(SCc3ccc(Cl)cc3)o2)ccn1 | 200 to 201
CC(C)(C)c1cc(N)cc(C(C)(C)C)c1O | 105 to 108
O=c1ccc(O)nn1-c1ccc(OC(F)(F)F)cc1 | 243
CN1C(=O)C(N)C(c2ccccc2)=Nc2ccccc21 (stereo not given) | 178 to 179
CC(C)(C)OC(=O)NCC(O)c1ccsc1 (stereo not given) | 103 to 105
Cc1cccc(-n2nnc3cccnc32)n1 | 144 to 145
COc1ccccc1COc1ccc(S(=O)(=O)c2ccc(C)nc2Nc2cc(OC)c(OC)cc2Cl)cc1 | 149 to 151
O=C1NC(=O)C2(c3cc(O)c(Cl)cc3F)CCCCC12 (stereo not given) | 140 to 141
CCCc1cc(-c2ccccc2)ccc1C(=O)O | 108
CCOP(=O)(OCC)C(O)c1ccccc1 (stereo not given) | 83 to 83.5
Cc1nc(NC(=O)c2cc[nH]c(=O)c2)sc1C(=O)NCc1ccccc1 | 290 to 292
O=C1C=CC(O)(c2cccc3ccccc23)C=C1 | 117 to 118
C[C@H](NC(=O)c1ncc[nH]1)C(=O)NC(C=O)CC(=O)O (stereo not given in full) | 115
NC1CCCC(C(=O)N2CCC(c3[nH]nc4c3C(=O)c3c(NC(=O)NN5CCOCC5)cccc3-4)CC2)C1 (stereo not given) | 201 to 203
O=C(O)CCCCCCCCN1NNN=C1C(c1ccccc1)c1ccccc1 | 68 to 70
COc1ccc(C2(C)C(=O)c3c(Cl)cc(Cl)cc3N(Cc3ccccc3)C2=O)cc1 (stereo not given) | 159 to 160
Nc1nc(Cn2ncc3cc(C(=O)NC[C@H](NS(=O)(=O)c4cccc5ccccc45)C(=O)O)ccc32)cc(=O)[nH]1 | 94 to 95
CCOc1cc2c(Nc3cc(OC)c(Cl)cc3Cl)c(C#N)cnc2cc1C#CCCO | 220 to 222
CCOCc1nc2c(N)nc3ccccc3c2n1CC1CC(C)=NO1 (stereo not given) | 204 to 205
CCn1nc(-c2ccccc2)c(C(C)=O)c(Nc2cccc(Cl)c2)c1=O | 189 to 191
COc1cc(OCC2CCCCC2)ccc1/C=C/c1cc(/C=C/c2ccc3cc[nH]c3c2)[nH]n1 | 104 to 108
Cc1cccc(C)c1N1CCCN(c2c(C)cccc2C)C1=N | 68 to 71
CCCCNC(=O)Oc1cccc(NC(=O)NC2CC2)c1 | 154

SMILES | melting point [°C]
CC(=O)Oc1cc(-c2ccccc2)ccc1C1(OC(C)=O)C(=O)c2ccccc2C1=O | 165 to 167
CCCCCCCCOc1ccc(C=[N+]([O-])C(C)(C)C)c(F)c1 | 35.6
COc1ccc(S(=O)(=O)c2ccnc(C)c2C)cc1 | 84 to 85
O=C(O)C1c2ccccc2COc2cc(Br)ccc21 (stereo not given) | 217 to 218
O=C1CCC(=O)c2ccccc2N1 | 168 to 170
OCC(O)COCc1nnc2n1-c1ccc(Cl)cc1C(c1ccccc1)=NC2 (stereo not given) | 130 to 134
NCCCCc1ccccc1C1=NNC(=O)CC1 | 78 to 80
CNc1nc(C)nc(N2CCCC(C)C2)n1 (stereo not given) | 155 to 156
CC(=O)N1CCC(=O)C(C2c3ccccc3CCc3ccccc32)C1 (stereo not given) | 107 to 109
Oc1ccc2c(c1)C13CCN(CC4CC4)C(C2)C1OCOC3 (stereo not given) | 193 to 196
COc1ccc(CC2CCN(C(=O)C(=O)Nc3ccc(NS(C)(=O)=O)cc3)CC2)cc1 | 206 to 208
Cc1oc(-c2ccco2)nc1COc1ccc(COc2nn(Cc3ccc(OCc4nc(-c5ccco5)oc4C)cc3)cc2CO)cc1 | 80 to 81
O=C1CNC(=O)N1c1ccncc1 | 232 to 234
Cn1ncc(C(=O)c2ccc(S(C)(=O)=O)c3c2CC2CON=C32)c1OC(=O)c1ccccc1 (stereo not given) | 86 to 93
O=S(=O)(Cl)c1cc(S(=O)(=O)Cl)c2c(Cl)ccc(S(=O)(=O)Cl)c2c1 | 165 to 166
CNc1ncc2c(n1)N(C1CCC(C(=O)O)CC1)C(=O)N(c1c(F)c(OC)cc(OC)c1F)C2 (stereo not given) | 148
CN(C)C1CCN(C(=O)C2CCC(Nc3nccc(-n4ccc5c(OCCCS(C)(=O)=O)cccc54)n3)CC2)CC1 (stereo not given) | 182 to 183
CC(C)c1nc(CCOC(N)=O)n(Cc2ccncc2)c1Sc1cc(Cl)cc(Cl)c1 | 189 to 191
C#CCNC(=NCCSCc1ncccc1Cl)NC#N | 115 to 116
O=C(CCl)Nc1ccccc1O | 133 to 134
COc1ccc(C(=O)c2cc(-c3ccc(S(C)(=O)=O)cc3)c(N3CCOCC3)s2)cc1 | 154
COc1cccc(-c2ccc(N3CCCN(c4ccc(-c5cccc(OC)c5)cn4)CC3)nc2)c1 | 146 to 149
COc1cc(CCCC2OCCO2)ccc1OCc1nc(-c2ccccc2)oc1C | 74 to 75
CN1CC(N(C(=O)c2ccc(Cl)cc2)c2ccccc2)CN1C | 104 to 108
NS(=O)(=O)c1cc(Br)cc2c1OS(=O)(=O)C=C2 | 224 to 228
